Source: PMC3058569 (Chemical biology & drug design, 2010)
≈ marks a conversion by molar mass, not a printed value. Where “and” joins values, the source holds several entries; their conditions need not be identical. Equal values may be shown once.

Tests used:
[1] = tested on: Cryptococcus neoformans; assay: Antifungal susceptibility testing, modified CLSI method; format: cell-based
[2] = tested on: A. fumigatus; assay: as above; format: cell-based; conditions: Aspergillus fumigatus
[3] = tested on: L. donovani promastigotes; assay: Antileishmanial activity, Alamar Blue assay; format: cell-based, Leishmania donovani; conditions: for IC50 / IC90: Leishmania donovani; for IC50: read-out: Antileishmanial L. donovani IC50; for IC90: read-out: Antileishmanial L. donovani IC90; for Antileishmanial L. donovani IC50 / Antileishmanial L. donovani IC90: promastigotes; for Antileishmanial L. donovani IC90: 90% inhibition of leishmanial growth
[4] = tested on: P. falciparum chloroquine sensitive (D6) clone; assay: In vitro antimalarial activity, plasmodial LDH activity; format: cell-based, Plasmodium falciparum; conditions: for IC50: Plasmodium falciparum, D6, read-out: Antimalarial P. falciparum D6 Clone IC50
[5] = tested on: P. falciparum chloroquine resistant (W2) clone; assay: microbe, parasite or virus in culture; format: cell-based, Plasmodium falciparum; conditions: for IC50: Plasmodium falciparum, W2, read-out: Antimalarial P. falciparum W2 Clone IC50
[6] = tested on: Mycobacterium intracellulare; assay: Susceptibility by modified Alamar Blue procedure; format: cell-based
[7] = tested on: Staphylococcus aureus; assay: Antibacterial susceptibility testing, modified CLSI method; format: cell-based; conditions: for IC50 Antibacterial S. aureus: 50% inhibition of bacterial growth; for IC50 against S. aureus and methicillin resistant S. aureus: range over both compounds and both strains (abstract)
[8] = tested on: methicillin resistant S. aureus (MRS); assay: as above; format: cell-based, Staphylococcus aureus; conditions: for IC50 Antibacterial MRS: 50% inhibition of bacterial growth
[9] = tested on: C. glabrata; assay: Antifungal susceptibility testing, modified CLSI method; format: cell-based, Candida glabrata; conditions: 50% inhibition of fungal growth
[10] = tested on: BSL-1 and 2 model organisms (fungi, bacteria, P. falciparum, L. donovani); assay: Overall in vitro antimicrobial and antiprotozoal screen; format: cell-based; conditions: for Activity against all other test organisms: fungi and bacteria other than S. aureus and MRS; for Antimicrobial or antiprotozoal activity (overall): all test organisms
[11] = lowest concentration that allows no detectable growth

## C[C@@H]1[C@H](O)[C@@H](C)/C=C/C=C/C=C/C=C/C=C/C=C/C=C/[C@H](O[C@@H]2O[C@H](C)[C@@H](O)[C@H](N)[C@@H]2O)C[C@@H]2O[C@](O)(C[C@@H](O)C[C@@H](O)[C@H](O)CC[C@@H](O)C[C@@H](O)CC(=O)O[C@H]1C)C[C@H](O)[C@H]2C(=O)O [Amphotericin B]
[1]; 50% inhibition of fungal growth
  IC50 Antifungal C. neoformans: 1.28 µg/mL (≈ 1.39 µM)
[1]; Cryptococcus neoformans, read-out: MIC Antifungal C. neoformans
  MIC: 2.5 µg/mL (≈ 2.71 µM)
[2]; read-out: IC50 Antifungal A. fumigatus
  IC50: 0.98 µg/mL (≈ 1.06 µM)
[2]; read-out: MIC Antifungal A. fumigatus
  MIC: 2.5 µg/mL (≈ 2.71 µM)
[3]
  IC50: 0.2 µg/mL (≈ 0.216 µM)
  IC90: 0.4 µg/mL (≈ 0.433 µM)

## C[C@@H]1CC[C@H]2[C@@H](C)C(=O)O[C@@H]3O[C@@]4(C)CC[C@@H]1[C@]32OO4 [Artemisinin]
[4]
  IC50: 0.01 µg/mL (≈ 0.0354 µM)
[5]
  IC50: 0.0065 µg/mL (≈ 0.023 µM)

## CCN(CC)CCCC(C)Nc1ccnc2cc(Cl)ccc12 (stereo not shown) [Chloroquine]
[4]
  IC50: 0.015 µg/mL (≈ 0.0469 µM)
[5]
  IC50: 0.12 µg/mL (≈ 0.375 µM)

## O=C(O)c1cn(C2CC2)c2cc(N3CCNCC3)c(F)cc2c1=O [Ciprofloxacin]
[6]; Mycobacterium intracellulare, read-out: IC50 Antibacterial M. intracellulare
  IC50: 0.39 µg/mL (≈ 1.18 µM)
[6]; Mycobacterium intracellulare, read-out: MIC Antibacterial M. intracellulare
  MIC: 0.5 µg/mL (≈ 1.51 µM)

## NC(=O)c1cc[n+](CCCBr)cc1.[Br-] [Compound 17]
[4]; chloroquine sensitive clone
  Antimalarial P. falciparum D6 Clone IC50: 3.7 µg/mL
[5]; chloroquine resistant clone
  Antimalarial P. falciparum W2 Clone IC50: 4.0 µg/mL

## ON=Cc1cccc[n+]1Cc1ccc(Br)s1.[Cl-] [Compound 21]
[7]
  IC50 Antibacterial S. aureus: 15.3 µg/mL and 15.27 µg/mL
  IC50 against S. aureus and methicillin resistant S. aureus: 12.2 to 17.7 µg/mL
[8]
  IC50 Antibacterial MRS: 14.2 µg/mL and 14.19 µg/mL
[9]
  IC50 Antifungal C. glabrata: >20 µg/mL
[3]
  Antileishmanial L. donovani IC50: 19 µg/mL
  Antileishmanial L. donovani IC90: 40 µg/mL
[10]
  Activity against all other test organisms: inactive

## ON=Cc1cccc[n+]1Cc1csc2ccccc12.[Cl-] [Compound 24, 1-(Benzothiophene-3-yl)-methyl-2-hydroxyiminomethylpyridinium chloride]
[7]
  IC50 Antibacterial S. aureus: 12.2 µg/mL and 12.23 µg/mL
  IC50 against S. aureus and methicillin resistant S. aureus: 12.2 to 17.7 µg/mL
[7]; [11]
  MIC Antibacterial S. aureus: 20 µg/mL
[8]
  IC50 Antibacterial MRS: 17.7 µg/mL and 17.72 µg/mL
[8]; [11]
  MIC Antibacterial MRS: 20 µg/mL
[6]; 50% inhibition of bacterial growth
  IC50 Antibacterial M. intracellulare: >20 µg/mL
[3]
  Antileishmanial L. donovani IC50: 18 µg/mL
  Antileishmanial L. donovani IC90: 40 µg/mL
[10]
  Activity against all other test organisms: inactive

## O/N=C/c1cc[n+](COC[n+]2ccc(/C=N/O)cc2)cc1 [Compound 37, obidoxime, reference compound]
[10]
  Antimicrobial or antiprotozoal activity (overall): completely devoid of any antimicrobial or antiprotozoal activities

## ON=Cc1cc[n+](CCC[n+]2ccc(/C=N/O)cc2)cc1 [Compound 42, trimedoxime, reference compound]
[10]
  Antimicrobial or antiprotozoal activity (overall): completely devoid of any antimicrobial or antiprotozoal activities

## N=C(N)c1ccc(OCCCCCOc2ccc(C(=N)N)cc2)cc1 [Pentamidine, reference compound]
[3]
  IC50: 1.2 µg/mL (≈ 3.52 µM)
  IC90: 5 µg/mL (≈ 14.7 µM)
